Laboratory results from patent publication US20260007681A1, “INDOLE DERIVATIVES AS ESTROGEN RECEPTOR DEGRADERS” (REGENTS OF THE UNIVERSITY OF MICHIGAN, priority 2022, published 2026).
Where a name gives a salt, the structure may show the parent alone. Read-outs that look alike come from different tables or passages of the source.

Columns and labels:
[1] = biological target: ERα_LBD(GST) (Homo sapiens (Human), UniProt P03372); test: IC50 measurements for binding to ERα_LBD (GST), LanthaScreen TR-FRET ERα competitive binding assay; settings: 4 nM ERα_LBD(GST), 3 nM Fluormone ES2 Green tracer, 60 min; read-out: ERα HTRF IC50
Description: • 1. ERα_LBD(GST) protein: 4 nM • 2. Tb Anti-GST: 2 nM • 3. Fluormone ES2 Green tracer: 3 nM • 4. Incubation time: 60 min • 5. DMSO: 1% • 6. Assay buffer: Adding 1M DTT to Nuclear receptor Buffer K for final 5 mM DTT. • 7. ZPE: 1% DMSO • 8. HPE: 1 μM ARV_471 • 9. LanthaScreen® TR-FRET ERα Competitive Binding Assay (ThermoFisher, #A15887)
• 1) Cherry pick 2 μL 10 mM compound stock to column 1 of a 384 intermediate plate • 2) Add 18 μL DMSO to column 1 to dilute compound to 1 mM. • 3) Transfer 10 μL 1 mM compound to column 1 of a LDV plate. • 4) Add 6 μl DMSO to column 2-10 of the LDV plate. • 5) Compounds undergo 3-fold serial dilution (3 μL+6 μL) in DMSO. • 6) Transfer 120 nL compound solution to assay plate. • ZPE: 120 nL 100% DMSO
Prepare complete nuclear receptor buffer K by adding 1 M DTT to nuclear receptor buffer K for a final concentration of 5 mM DTT. Complete nuclear receptor buffer K must be prepared fresh daily. Prepare 2X protein solution using complete nuclear receptor buffer K containing 8 nM ERα_LBD(GST) and 4 nM Tb Anti-GST. Then, prepare 2× Fluormone ES2 Green tracer (6 nM) using complete nuclear receptor buffer K. Add 6 μL 2× Fluormone ES2 green tracer into a compound plate (PerkinElmer 6008289) by dragonfly with one-tips-addition. Subsequently, add 6 μL 2× protein solution into the plate. Briefly and gently mix the 384-well plate on a plate shaker and incubate at room temperature protected from light for 60 min. The plate is sealed with a cover to minimize evaporation. Read the plate at wavelengths of 520 nm and 495 nm. Calculate the TR-FRET ratio by dividing the emission signal at 520 nm by the emission signal at 495 nm. Generate a binding curve by plotting the emission ratio vs. the log [ligand]. To determine the IC50 value, fit the data using XL-fit for a sigmoidal dose-response.

[2] = biological target: ER in MCF-7 cells (Homo sapiens (Human), UniProt P03372); test: In-cell western (ICW) ER degradation assay in MCF-7 cells (Compounds A1-A70); assay type: cell-based; settings: for DC50: ER degradation, 0.02 to 300 nM, read-out: MCF7 ICW DC50
[3] = biological target: ER in T47D cells (Homo sapiens (Human), UniProt P03372); test: In-cell western (ICW) ER degradation assay in T47D cells (Compounds A1-A70); assay type: cell-based; settings: for DC50: ER degradation, 0.02 to 300 nM; for Dmax: T47D, read-out: T47D ICW Dmax (%)
[4] = biological target: CRBN/DDB1 (Homo sapiens (Human), UniProt Q96SW2); assay type: binding; settings: His tagged CRBN+DDB-DLS7+CXU4, Cy5-labeled Thalidomide probe, one hour incubation; read-out: CRBN HTRF IC50
Description: The binding potency was determined using H-TRF assay technology (Perkin Elmer). Compounds were serially diluted in DMSO and 0.2 μL volume was transferred to white 384-well plate.

[5] = MCF7, read-out: MCF7 ICW Dmax (%)
[6] = maximal ER degradation, T47D cells, 16 hrs treatment
[7] = MCF7, maximal ER degradation, MCF-7 cells, 16 hrs treatment, read-out: MCF7 ICW Dmax (%)

Sequence of ER in T47D cells (P03372 whole entry): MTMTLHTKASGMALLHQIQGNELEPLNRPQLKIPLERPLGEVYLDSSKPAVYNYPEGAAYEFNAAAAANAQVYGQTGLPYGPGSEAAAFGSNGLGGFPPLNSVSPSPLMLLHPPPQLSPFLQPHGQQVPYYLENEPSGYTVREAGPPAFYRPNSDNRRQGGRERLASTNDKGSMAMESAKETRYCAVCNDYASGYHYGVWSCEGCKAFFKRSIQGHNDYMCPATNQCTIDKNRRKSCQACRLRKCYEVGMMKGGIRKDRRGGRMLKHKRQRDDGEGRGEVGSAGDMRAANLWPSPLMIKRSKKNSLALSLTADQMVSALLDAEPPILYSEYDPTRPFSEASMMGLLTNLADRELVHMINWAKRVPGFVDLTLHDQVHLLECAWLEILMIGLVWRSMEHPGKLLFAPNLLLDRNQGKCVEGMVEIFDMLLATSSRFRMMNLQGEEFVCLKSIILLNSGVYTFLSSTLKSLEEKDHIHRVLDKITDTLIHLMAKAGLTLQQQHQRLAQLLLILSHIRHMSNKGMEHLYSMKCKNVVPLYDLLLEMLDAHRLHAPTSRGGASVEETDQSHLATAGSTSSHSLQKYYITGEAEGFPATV
Sequence of ER in MCF-7 cells (P03372 whole entry): as above
Sequence of ERα_LBD(GST) (P03372 311-547): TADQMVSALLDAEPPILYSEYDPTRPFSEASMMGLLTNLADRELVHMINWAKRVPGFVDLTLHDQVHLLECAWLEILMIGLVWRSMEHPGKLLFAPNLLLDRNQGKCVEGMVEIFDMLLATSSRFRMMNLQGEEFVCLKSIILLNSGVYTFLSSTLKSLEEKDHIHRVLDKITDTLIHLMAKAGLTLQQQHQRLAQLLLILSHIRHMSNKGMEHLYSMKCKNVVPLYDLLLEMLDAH
Sequence of CRBN/DDB1 (Q96SW2 whole entry): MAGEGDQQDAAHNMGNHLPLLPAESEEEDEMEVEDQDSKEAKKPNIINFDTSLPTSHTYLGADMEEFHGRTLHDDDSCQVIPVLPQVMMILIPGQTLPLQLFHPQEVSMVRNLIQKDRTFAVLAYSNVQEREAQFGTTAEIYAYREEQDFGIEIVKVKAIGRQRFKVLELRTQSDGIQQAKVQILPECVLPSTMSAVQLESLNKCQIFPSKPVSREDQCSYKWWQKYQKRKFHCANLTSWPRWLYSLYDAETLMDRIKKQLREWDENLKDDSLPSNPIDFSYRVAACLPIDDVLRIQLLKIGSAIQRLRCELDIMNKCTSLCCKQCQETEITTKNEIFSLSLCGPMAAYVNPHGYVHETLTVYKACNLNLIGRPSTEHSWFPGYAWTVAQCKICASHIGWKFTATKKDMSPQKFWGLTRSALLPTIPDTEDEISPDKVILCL
Sequence of CRBN/DDB1 (Q16531 whole entry partner): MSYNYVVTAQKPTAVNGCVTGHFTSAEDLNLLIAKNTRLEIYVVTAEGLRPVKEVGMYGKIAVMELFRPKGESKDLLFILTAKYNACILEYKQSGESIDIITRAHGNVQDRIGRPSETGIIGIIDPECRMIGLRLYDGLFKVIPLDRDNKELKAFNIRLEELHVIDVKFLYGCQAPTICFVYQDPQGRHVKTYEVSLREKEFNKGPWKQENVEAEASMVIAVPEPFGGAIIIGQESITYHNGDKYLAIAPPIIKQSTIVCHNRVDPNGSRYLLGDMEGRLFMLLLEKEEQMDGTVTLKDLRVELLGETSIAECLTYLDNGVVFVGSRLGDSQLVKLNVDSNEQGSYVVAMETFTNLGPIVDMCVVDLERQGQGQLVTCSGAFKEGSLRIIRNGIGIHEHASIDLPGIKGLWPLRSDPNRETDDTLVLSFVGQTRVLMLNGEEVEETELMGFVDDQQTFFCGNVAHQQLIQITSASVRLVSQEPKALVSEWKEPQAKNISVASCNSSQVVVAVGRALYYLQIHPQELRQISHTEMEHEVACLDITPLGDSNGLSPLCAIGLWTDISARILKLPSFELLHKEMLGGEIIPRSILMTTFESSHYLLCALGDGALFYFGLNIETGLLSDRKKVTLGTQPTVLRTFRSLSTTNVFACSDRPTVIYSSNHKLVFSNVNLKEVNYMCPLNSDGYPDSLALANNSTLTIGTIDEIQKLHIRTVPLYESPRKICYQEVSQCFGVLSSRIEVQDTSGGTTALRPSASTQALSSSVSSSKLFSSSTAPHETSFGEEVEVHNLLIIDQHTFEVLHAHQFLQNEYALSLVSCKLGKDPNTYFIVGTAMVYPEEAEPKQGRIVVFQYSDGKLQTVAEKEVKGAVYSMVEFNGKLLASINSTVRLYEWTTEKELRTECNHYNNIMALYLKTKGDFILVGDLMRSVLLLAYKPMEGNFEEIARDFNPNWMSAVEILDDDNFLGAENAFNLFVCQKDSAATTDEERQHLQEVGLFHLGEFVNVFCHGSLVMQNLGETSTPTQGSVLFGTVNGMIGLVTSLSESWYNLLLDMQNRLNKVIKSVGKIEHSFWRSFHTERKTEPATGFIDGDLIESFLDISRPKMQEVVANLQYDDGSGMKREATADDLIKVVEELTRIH

Row | Structure (SMILES) | IC50 [1] | DC50 ([2]; MCF-7 cells, 16 hrs treatment) | MCF7 ICW Dmax (%) ([2]; maximal ER degradation, MCF-7 cells, 16 hrs treatment) | Dmax [2, 5] | DC50 ([3]; T47D cells, 16 hrs treatment) | Dmax [3] | Dmax [3, 6] | IC50 [4] | Dmax [2, 7]
1 | COc1cc(N2CCC(CN3CCN4c5ccc6c(c5OC[C@@H]4C3)CN([C@H]3CCC(=O)NC3=O)C6=O)CC2)ccc1[C@@H]1c2[nH]c3ccccc3c2C[C@@H](C)N1CC(F)F [Compound A12, (S)-3-((S)-7-((1-(4-((1R,3R)-2-(2,2-difluoroethyl)-3-methyl-2,3,4,9-tetrahydro-1H-pyrido[3,4-b]indol-1-yl)-3-methoxyphenyl)piperidin-4-yl)methyl)-1-oxo-1,3,5,5a,6,7,8,9-octahydro-2H-pyrazino[1′,2′:4,5][1,4]oxazino[2,3-e]isoindol-2-yl)piperidine-2,6-dione] | < 10 nM | < 1 nM | B (“B”: >50% and <75%) | – | – | – | – | – | –
2 | COc1cc(N2CCC(CN3CCN4c5ccc6c(c5OC[C@H]4C3)CN([C@H]3CCC(=O)NC3=O)C6=O)CC2)ccc1[C@@H]1c2[nH]c3ccccc3c2C[C@@H](C)N1CC(C)(C)F [Compound A49, (S)-3-((R)-7-((1-(4-((1R,3R)-2-(2-fluoro-2-methylpropyl)-3-methyl-2,3,4,9-tetrahydro-1H-pyrido[3,4-b]indol-1-yl)-3-methoxyphenyl)piperidin-4-yl)methyl)-1-oxo-1,3,5,5a,6,7,8,9-octahydro-2H-pyrazino[1′,2′:4,5][1,4]oxazino[2,3-e]isoindol-2-yl)piperidine-2,6-dione] | ≥ 10 nM | < 1 nM | – | > 75% | < 1 nM | 50 to 75% | – | – | –
3 | C[C@H]1Cc2c([nH]c3ccccc23)[C@H](c2cnc(N3CCC4(CC3)C[C@@H](CN3CCN5c6ccc7c(c6OC[C@@H]5C3)CN([C@@H]3CCC(=O)NC3=O)C7=O)CO4)nc2)N1CC(F)F [Compound A59, (R)-3-((S)-7-(((S)-8-(5-((1S,3S)-2-(2,2-difluoroethyl)-3-methyl-2,3,4,9-tetrahydro-1H-pyrido[3,4-b]indol-1-yl)pyrimidin-2-yl)-1-oxa-8-azaspiro[4.5]decan-3-yl)methyl)-1-oxo-1,3,5,5a,6,7,8,9-octahydro-2H-pyrazino[1′,2′:4,5][1,4]oxazino[2,3-e]isoindol-2-yl)piperidine-2,6-dione formate] | ≥ 10 nM | < 1 nM | – | 50 to 75% | < 1 nM | – | 50 to 75% | – | –
4 | C[C@H]1Cc2c([nH]c3ccccc23)[C@H](c2cnc(N3CCC4(CC3)C[C@@H](CN3CCN5c6cc7c(cc6OC[C@H]5C3)C(=O)N([C@@H]3CCC(=O)NC3=O)C7)CO4)nc2)N1CC(F)F [Compound A61, (R)-3-((R)-3-(((S)-8-(5-((1S,3S)-2-(2,2-difluoroethyl)-3-methyl-2,3,4,9-tetrahydro-1H-pyrido[3,4-b]indol-1-yl)pyrimidin-2-yl)-1-oxa-8-azaspiro[4.5]decan-3-yl)methyl)-8-oxo-1,2,3,4,4a,5,8,10-octahydro-9H-pyrazino[1′,2′:4,5][1,4]oxazino[2,3-f]isoindol-9-yl)piperidine-2,6-dione] | ≥ 10 nM | < 1 nM | – | 50 to 75% | < 1 nM | – | 50 to 75% | – | –
5 | C[C@H]1Cc2c([nH]c3ccccc23)[C@H](c2ccc(N3CCC(CN4CCN5c6ccc7c(c6OC[C@@H]5C4)CN([C@@H]4CCC(=O)NC4=O)C7=O)CC3)cn2)N1CC(F)(F)F [Compound A62, (R)-3-((S)-7-((1-(6-((1R,3S)-3-methyl-2-(2,2,2-trifluoroethyl)-2,3,4,9-tetrahydro-1H-pyrido[3,4-b]indol-1-yl)pyridin-3-yl)piperidin-4-yl)methyl)-1-oxo-1,3,5,5a,6,7,8,9-octahydro-2H-pyrazino[1′,2′:4,5][1,4]oxazino[2,3-e]isoindol-2-yl)piperidine-2,6-dione] | – | 10 to 100 nM | – | – | 10 to 100 nM | – | 25 to 50% | 500 to 5000 nM | 25 to 50%
6 | C[C@H]1Cc2c([nH]c3ccccc23)[C@H](c2ccc(N3CCC(CN4CCN5c6cc7c(cc6OC[C@H]5C4)C(=O)N([C@@H]4CCC(=O)NC4=O)C7)CC3)cn2)N1CC(F)(F)F [Compound A64, (R)-3-((R)-3-((1-(6-((1R,3S)-3-methyl-2-(2,2,2-trifluoroethyl)-2,3,4,9-tetrahydro-1H-pyrido[3,4-b]indol-1-yl)pyridin-3-yl)piperidin-4-yl)methyl)-8-oxo-1,2,3,4,4a,5,8,10-octahydro-9H-pyrazino[1′,2′:4,5][1,4]oxazino[2,3-f]isoindol-9-yl)piperidine-2,6-dione] | – | > 100 nM | – | – | > 100 nM | – | < 25% | 500 to 5000 nM | < 25%
7 | C[C@@H]1Cc2c([nH]c3ccccc23)[C@H](c2cnc(N3CCC4(CC3)C[C@@H](CN3CCN5c6ccc(C(=O)N[C@H]7CCC(=O)NC7=O)nc6OC[C@H]5C3)CO4)nc2)N1CC(F)F [Compound A65, (R)-3-(((S)-8-(5-((1S,3R)-2-(2,2-difluoroethyl)-3-methyl-2,3,4,9-tetrahydro-1H-pyrido[3,4-b]indol-1-yl)pyrimidin-2-yl)-1-oxa-8-azaspiro[4.5]decan-3-yl)methyl)-N-((S)-2,6-dioxopiperidin-3-yl)-1,2,3,4,4a,5-hexahydropyrazino[1,2-d]pyrido[2,3-b][1,4]oxazine-8-carboxamide] | – | 1 to 10 nM | – | – | 1 to 10 nM | – | 50 to 75% | 50 to 500 nM | 50 to 75%
8 | C[C@H]1Cc2c([nH]c3ccccc23)[C@H](c2cnc(N3CCC4(CC3)C[C@@H](CN3CCC(c5ccc(N[C@@H]6CCC(=O)NC6=O)cc5)CC3)CO4)nc2)N1CC(F)F [Compound A66, (R)-3-((4-(1-(((S)-8-(5-((1S,3S)-2-(2,2-difluoroethyl)-3-methyl-2,3,4,9-tetrahydro-1H-pyrido[3,4-b]indol-1-yl)pyrimidin-2-yl)-1-oxa-8-azaspiro[4.5]decan-3-yl)methyl)piperidin-4-yl)phenyl)amino)piperidine-2,6-dione] | – | < 1 nM | – | – | 1 to 10 nM | – | > 75% | 50 to 500 nM | 50 to 75%
9 | C[C@H]1Cc2c([nH]c3ccccc23)[C@H](c2cnc(N3CCC4(CC3)C[C@H](CN3CCC(c5ccc(N[C@H]6CCC(=O)NC6=O)cc5)CC3)CO4)nc2)N1CC(F)F [Compound A67, (S)-3-((4-(1-(((R)-8-(5-((1S,3S)-2-(2,2-difluoroethyl)-3-methyl-2,3,4,9-tetrahydro-1H-pyrido[3,4-b]indol-1-yl)pyrimidin-2-yl)-1-oxa-8-azaspiro[4.5]decan-3-yl)methyl)piperidin-4-yl)phenyl)amino)piperidine-2,6-dione] | – | < 1 nM | – | – | < 1 nM | – | 50 to 75% | 500 to 5000 nM | 50 to 75%
10 | C[C@@H]1Cc2c([nH]c3ccccc23)[C@@H](c2cnc(N3CCC4(CC3)C[C@@H](CN3CCC(c5ccc(N[C@@H]6CCC(=O)NC6=O)cc5)CC3)CO4)nc2)N1CC(F)F [Compound A70, (3R)-3-((4-(1-((8-(5-((1R,3R)-2-(2,2-difluoroethyl)-3-methyl-2,3,4,9-tetrahydro-1H-pyrido[3,4-b]indol-1-yl)pyrimidin-2-yl)-1-oxa-8-azaspiro[4.5]decan-3-yl)methyl)piperidin-4-yl)phenyl)amino)piperidine-2,6-dione] | < 10 nM | < 1 nM | – | – | < 1 nM | – | > 75% | – | 50 to 75%
